One may read the melting point as the temperature, or range, at which the solid turns liquid. Take `CN1C(=O)CCC2(C)c3ccc(Sc4ccncc4)cc3CCC12` (single isomer, unassigned; (+)): the melting point lay in the range of 157 to 158 °C. The figure for `CC(C)CC(CNOCc1ccccc1)C(=O)O` (racemic) is 73 to 75 °C.

In turn, `CCOC(=O)COC(=O)c1cc(S(N)(=O)=O)c(Cl)cc1NCc1ccco1` returned a melting point of 46 °C. As to `CCCCOCCOc1ccc(-c2ccc3c(c2)C=C(C(=O)O)CCN3S(C)(=O)=O)cc1`, the melting point fell in the range of 208 to 210 °C. The figure for `CON=C(c1ccccc1OCc1ccc(C)cc1)n1ccnc1` is 70.5 to 72 °C.

Consider `CC1(Sc2ccccc2)C(=O)C2CC=CC21` (stereo not drawn), for which the melting point stood at 49 °C. The figure for `O=C(Cc1noc2ccccc12)NS(=O)(=O)c1ccccc1` is 171 to 172 °C. In the case of `Cc1cccc(NC(=O)NC2CN(C(=O)C(C)C)c3ccccc3N(CC(=O)c3ccccc3C)C2=O)c1` (stereo not drawn) it was 174 to 176 °C. `CC1=C(C(=O)OC(C)C)C(c2cccc([N+](=O)[O-])c2)N(CCCc2ccccc2)C(=O)N1` (stereo not drawn): the melting point lay within 150 to 152 °C. On to `Cc1cc(C=Cc2ccccc2O)on1`, for which the melting point fell in the range of 236 to 238 °C. In the case of `COC(=O)CC[C@H]1C(=O)N(c2ccc(F)cc2)[C@@H]1c1ccc(O)cc1` it was 136 to 137 °C. Molecule `CC(=O)Nc1nc(CCc2ccc(NC(=N)N)cc2)c(C(=O)N2CCN(C(C)=O)CC2)s1` displayed a melting point of 206 to 208 °C. As to `CCCCCCCCCCCCn1nnc(C(=NOC)C(=O)Nc2c(OC)cc(OC)cc2OC)n1`, the melting point was in the range of 84 to 85 °C. Regarding `Cc1cc(C(N)=NO)ccc1[N+](=O)[O-]`, the melting point was 127 to 129 °C. The figure for `O=C(c1ccc(F)cc1)C1CCN(CCCn2c(=O)[nH]c3ccc(Cl)cc32)CC1` is 157 °C; for `CCN(CC)C(=O)n1cnc(S(=O)(=O)CC2CCCCC2)n1` it is 40 to 46 °C. Regarding `CCN1CCC(c2c[nH]c3ccc(NC(=O)c4ccco4)cc23)CC1`, the melting point is 178 to 179 °C. Regarding `CC(=O)Nc1cc2c(cc1Br)CCC2`, the melting point amounted to 138 °C.

The molecule `CCCCCc1ccc(C(=O)Nc2ccc(-n3nc(C(F)(F)F)cc3C(F)(F)F)cc2)c(=O)o1` displayed a melting point of 140 to 141 °C.

`C=CC(=O)N(CC)c1cn(-c2cccnc2)nc1Cl`: the melting point was 67 to 68 °C.

`Nc1cc(=O)n(Cc2ccc(-c3ccccc3)cc2)[nH]1`: the melting point fell in the range of 185 to 186 °C. As for `CC(Br)CN(CC(C)Br)c1c(C(=O)NCCOP(=O)(O)O)cc([N+](=O)[O-])cc1[N+](=O)[O-]` (stereo not drawn), the melting point was 157 to 161 °C. The figure for `Cc1ccccc1S(=O)(=O)NC(=O)CCc1cc(OC(C)C)nn1Cc1ccc(Cl)cc1Cl` is 165 to 166 °C. In the case of `CCCNC(=O)C(C)=Cc1ccc2[nH]ccc2c1` it was 92 to 94 °C.

`COCOc1ccc(C(=O)c2ccc(OCc3nc(-c4ccccc4)oc3C)cc2)c(O)c1` returned a melting point of 105 to 107 °C.

`COc1cc(C=O)c(C)c(OC)c1` displayed a melting point of 63.4 to 65.1 °C. In the case of `CC1N=C(N(C)N)NN=C1c1ccccc1` (stereo not drawn) it was 140 to 141 °C; in that of `COc1ccc2c3c(c(=O)oc2c1)CN(Cc1cccc(Cl)c1)CC3`, 112 to 115 °C; in that of `Cc1ccccc1C(=O)C=CC(=O)O`, 82 to 83 °C. `COc1ccc(-c2[nH]nc3c2C(=O)c2c(NC(=O)Cc4ccc(NC(=O)CN(C)C)cc4)cccc2-3)cc1`: the melting point was > 300 °C. In the case of `COc1cc(CCNc2ncnc3c(F)ccc(F)c23)ccc1Oc1ccc(C(F)(F)F)cn1` it was 119 to 121 °C; in that of `COc1cc2c(cc1OC)C(C(S)(C#N)CC(=O)O)=NCC2` (stereo not drawn), 173 to 175 °C; in that of `O=C(O)CCCCN(C(=O)c1ccc(Cl)cc1)c1ccccc1-c1ccccc1`, 170 to 173 °C.

For the molecule `O=Cc1coc2ccc(Br)cc2c1=O`, the melting point was 186 to 188 °C.

Turning to `O=C1CC2CCSc3sccc3C2=NN1` (stereo not drawn), the melting point was in the range of 215 to 217 °C.

`COC(=O)CC(NCc1ccccc1)=C(C(=O)OC)C(=O)C(F)(F)F` yielded a melting point of 89.5 to 90.5 °C. `CC(C)C(=O)[C@H]1CCn2c(cc3ccccc32)C1`: the melting point lay within 78 to 79 °C. In the case of `COc1ccccc1[C@@]1(O)C[C@@H](C)C[C@@H]2CN(Cc3ccccc3)C[C@@H]21` (racemic) it was 120 °C; in that of `CN1CCN(c2cccc3ccc(-c4cccc(NS(C)(=O)=O)c4)cc23)CC1`, 100 to 101 °C.

Consider `CCOC(=O)CCNc1nc2c(C)cc(C)cc2n1Cc1nc(C)ccc1O`, for which the melting point worked out at 180 °C.

`COc1cc(C2=NCCc3cc(C)ccc32)cc(OC)c1OC` registered a melting point of 105 to 106 °C. For the molecule `CCC(CC)n1c(=O)ccc2cnc(S(C)=O)nc21` (stereo not drawn), the melting point was in the range of 111 to 114 °C.

The molecule `CCc1cc(NCc2ccc(-c3ccccc3C#N)cc2)n2ccnc2n1` gave a melting point of 99 to 100 °C. The figure for `Cc1nc(N2CCN(CC3CC3(F)F)C2=O)sc1C(=O)O` (stereo not drawn) is 210 to 215 °C; for `CC(C)c1cccc(C(C)C)c1NC(=O)NCC1(c2ccccc2)CC1` it is 138 to 142 °C; for `O=[N+]([O-])c1ccc(Nc2cccc(O)c2)cc1` it is 158 to 160 °C.

Molecule `O=c1cc(Cl)cc(Cl)o1` displayed a melting point of 43 to 45 °C. `Cn1cncc1C(O)(c1ccc(Cl)cc1)c1ccc2nc(C#Cc3ccccc3)cc(-c3cccc(Cl)c3)c2c1` (stereo not drawn) registered a melting point of 154 °C. Take `Cc1cc(Cl)ccc1-n1cnnc1C(F)(F)F`: the melting point came to 90 °C. `COCc1nccn1CC(=O)c1ccc(-c2ccc(N3C[C@H](Cn4ccnn4)OC3=O)cc2F)cn1` displayed a melting point of 78 to 80 °C. The figure for `COc1ccc2c(C)cc(=O)oc2c1C` is 162 to 164 °C; for `N#CCCCOc1ccc(C(=O)Nc2ccc(-n3nc(-c4cccnc4)cc3C#N)cc2)cn1` it is 190 to 191 °C. The figure for `COc1cc(Cl)c2nc(NN)nc(N)c2c1OC` is 168 to 169 °C.

Turning to `Cc1c(C)c2c(c(C)c1N)CC(C)(C(=O)N1CCc3c([nH]c4ccccc34)C1)O2` (stereo not drawn), the melting point is 129 to 133 °C. As for `CN(C(=O)Cl)c1ccc(C(O)(C(F)(F)F)C(F)(F)F)cc1`, the melting point lay within 152 to 154 °C. In the case of `COc1ccc(NC(=O)CCCCC(=O)N(C)OC)cc1` it was 89 to 90 °C. The molecule `O=C1c2ccccc2S(=O)(=O)N1CCCCN1CCN(c2cc(O)cc3c2OCCO3)CC1` displayed a melting point of 179 to 181 °C. As for `CCCCNC(=O)CCC(=O)O`, the melting point lay in the range of 93.5 to 94.5 °C. The figure for `COC(=O)CNC(=O)NCCCCC1CCSS1` (stereo not drawn) is 62 to 64 °C; for `O=C(O)[C@H](Cc1c[nH]c2ccccc12)NS(=O)(=O)c1ccc(N2CCC(c3ccccc3)CC2)cc1` it is 103 to 107 °C.

For `CCOC(=O)c1nc2ccc([N+](=O)[O-])cc2c(=O)[nH]1`, the melting point lay within 227 to 228 °C. Molecule `c1ccc2c(C3CNCCNCCNCCNCCN3)cccc2c1` (stereo not drawn) displayed a melting point of 87 to 88 °C.

`N=C(Nc1cc(Cl)cc(NC(=O)/C=C/c2ccccc2C(F)(F)F)c1)c1ccccc1F` came in with a melting point of 209 to 210 °C. In the case of `CS(=O)(=O)CCCOc1ccc(/C=C/C(=O)O)c(Oc2ncc(C(F)(F)F)cc2Cl)c1` it was 202 to 203 °C.

In the case of `O=C1CC(SCc2ccccc2)N1` (stereo not drawn), the melting point fell in the range of 50 to 51 °C. The molecule `COc1ccc(S(=O)(=O)N(Cc2ccccc2)c2c(C(=O)O)cnc3c2c(C)nn3-c2ccccc2)cc1` showed a melting point of 207 to 210 °C. With `CCOC(=O)c1ccc2nccc(O)c2c1`, the melting point was 233 to 234 °C.

For the molecule `CC(C)CC(=O)Nc1cccc(-c2ccnc3c(-c4cccc5cccnc45)cnn23)c1`, the melting point was in the range of 96 to 99 °C.

In the case of `Nc1ccccc1-c1nnc(-c2ccc(C(=O)O)cc2)o1`, the melting point was > 300 °C. The figure for `CSC(Nc1cc(C(F)(F)F)cc(C(F)(F)F)c1)=C(C#N)S(=O)(=O)c1ccc(Cl)cc1` is 150 to 152 °C; for `CCOC(=O)C(=O)Nc1ncc(C)s1` it is 166 to 168 °C. Turning to `O=C(CCCCl)Nc1cccc(-c2ccnc3c(C(=O)c4cccs4)cnn23)c1`, the melting point is 97 to 100 °C. The molecule `CC(C)Oc1ccc(CCCOc2cc(CCC(=O)O)n(-c3ccccc3)n2)c(OCc2ccc(C(F)(F)F)cc2)c1` gave a melting point of 118 to 119 °C. The figure for `Cc1oc(-c2ccccc2)nc1CCC#N` is 63 to 64 °C; for `CCOc1cc2ncc(C#N)c(Nc3ccc4c(c3)C(=O)OC4)c2cc1OCC` it is 280 to 284 °C; for `COC(=O)C(CCSC)c1nc(C)nc2c1nnn2-c1ccc(C(C)C)cc1Br` (stereo not drawn) it is 135 to 137 °C. In the case of `CC(C)(O)C(=O)Nc1ccc(Sc2ccccc2)cc1F` it was 91 to 92.5 °C; in that of `CNC(=O)Nc1ccc(Oc2ccc3c(c2)CCC(C)(OC)O3)cc1` (stereo not drawn), 140 °C.

As to `COC(=O)CSCCCCN(c1cnc(-c2ccccc2)c(-c2ccccc2)n1)C(C)C`, the melting point lay in the range of 64 to 67 °C. `COc1ccccc1OCC(O)CN1CCC(NC(=O)NC(=O)c2ccc(F)cc2)CC1` (stereo not drawn) returned a melting point of 194 to 195 °C.

The molecule `COc1ccc(-c2c(C)c3cccc4c3n2CC(CCN2CCN(c3cc(C)ccn3)CC2)O4)cc1` (stereo not drawn) registered a melting point of 165 °C.

For `O=C1COc2cc(OCc3c(F)cccc3F)ccc21`, the melting point lay within 134 to 138 °C. `CCCCC1(CCCC)CCc2c(OCc3ccc4ccccc4n3)ccc(C)c2C1O` (stereo not drawn) showed a melting point of 149 to 151 °C. The molecule `CCCCCNC(=O)C(C)Cc1ccc2c(c1)c(Cc1ccc(C(=O)NS(=O)(=O)c3ccccc3C)cc1OC)cn2C` (stereo not drawn) registered a melting point of 110 to 113 °C. As to `O=c1nc(N2CCc3ccccc32)sc2ncccc12`, the melting point was 249 to 250 °C.

`COc1ccc(-c2ccc(C(=O)NCCOc3ccc(CC(Oc4ccc(C(C)C)cc4)C(=O)O)cc3)cc2)cc1` (stereo not drawn) displayed a melting point of 159 to 160 °C.

`COCCOc1ccc(COC(=O)NS(=O)(=O)c2ccc(Cl)cc2)c(Oc2ncc(C(F)(F)F)cc2Cl)c1` displayed a melting point of 112 to 115 °C. The figure for `Cc1cc(O)cc(C)c1N=Cc1ccccc1O` is 145 to 147 °C.
